Results from PubChem BioAssay AID624142 (National Center for Advancing Translational Sciences (NCATS), 2012).

Test system: human liver microsomes, half-life, LC-MS/MS
Assay: qHTS Assay to Find Inhibitors of T. brucei phosphofructokinase: Human Liver Microsome Stability
Settings: at 1 µM; hits give high values

O=C(Cc1ccc(Cl)c(Cl)c1)Nc1ccc(S(=O)(=O)Nc2ccon2)cc1
half-life: 5.5 h
